Source: patent publication US20250134870A1, “PATHWAY MODULATOR, PHARMACEUTICAL COMPOSITION HAVING SAME, USE THEREOF, AND THERAPEUTIC METHOD USING SAME” (Jiangsu Yahong Meditech Co., Ltd., priority 2021, published 2025)

Key:
[1] = system: mesenteric lymph node immune cell subpopulations; experiment: Flow cytometry of immune cell subpopulations and cytokines in mesenteric lymph nodes of DSS colitis mice (Examples 2, 4); assay type: in vivo, C57BL/6J mice; details: 30 mg/kg PO QD × 8 days (Test group 1#) vs solvent group
Procedure: The experimental endpoint was 24 hours after administration on Day 8 for the positive drug control group and the Test group 1 #to Test group 7 #of Example 1; the experimental endpoint of the normal group and the solvent group was the same as that of the positive drug control group and Test group 1 #to Test group 7 #.
At the experimental endpoint, mesenteric lymphatic nodes were collected and treated as follows:
1) The mesenteric lymph nodes were gently grinded and filtered with a […] strainer (BD bioscience, Catalog No. 352350) to obtain a cell suspension, and the cells were counted.
2) The cells were suspended in a suspension solution (the suspension solution was prepared by the following process: diluting the cell activation mixture with a mixture of 90 v % 1640 medium and 10 v % fetal bovine serum to a concentration of 1×), the cell density was adjusted to 2.5×10^7/mL, and the cells were incubated at 37° C. for 5 hours. 3) The cells were washed with Dulbecco's Phosphate Buffered Saline, and stained with viable/dead stain (stain No. 12 in Table 5) at room temperature for 15 min to distinguish between viable cells and dead cells; the cells were washed with staining buffer (prepared by mixing fetal bovine serum and Dulbecco's Phosphate Buffered Saline at a volume ratio of 2:98), Fc block working solution (prepared by mixing Fc block and staining buffer at a volume ratio of 1:200) was added, and the cells were incubated at room temperature for 15 minutes.
4) The cells were surface labeled with 100 μL of antibody staining solution for flow cytometry without washing and incubated at 4° C. for 30 minutes.
5) The cells were washed once with staining buffer, 100 μL of cell fixative solution was added, and the cells were incubated at 4° C. overnight.
6) 200 μL of cell permeabilization solution was added and incubated at 4° C. for 30 minutes.
7) After washing with 250 μL of cell permeabilization solution, the cells were suspended with 100 μL of staining buffer and fluorescence was detected with a BD LSRFortessa instrument.
8) The cell subpopulations analyzed by flow cytometry included CD4+ T cell subpopulation, IL-17A+CD4+ T cell subpopulation, IFN-γ+CD4+ T cell subpopulation, TNF-α+CD4+ T cell subpopulation, CD25+FOXP3+ Treg cell subpopulation; CD8+ T cell subpopulation, IL-17A+CD8+ T cell subpopulation, IFN-γ+CD8+ T cell subpopulation, TNF-α+CD8+ T cell subpopulation; CD69+B220+ B cell subpopulation and NK1.1+CD107a+ NK cell subpopulation.

[2] = system: imiquimod (IMQ)-induced psoriasis; experiment: Imiquimod (IMQ)-induced psoriasis in mice: erythema, scales, thickness, total score, AUC (Example 8); assay type: in vivo, Balb/c mice; set-up: key to erythema score / scales score / thickness score: 0 = none, 1 = mild, 2 = moderate, 3 = obvious/severe; key to total score of erythema + scales + thickness: sum of three 0-3 scores (erythema + scales + thickening), 0-9
Procedure: All mice were shaved with a pet shaver to get an area of 2×3 cm on the back one day before the start of the experiment.
65 animals were randomly divided into groups according to body weight, and the dosing regimen was as follows.
Imiquimod (IMQ) cream: 62.5 mg of IMQ cream for each mouse in G2 to G7; Dexamethasone (DEX) ointment: 70 mg of ointment for each mouse in G4;
Tofacitinib: Tofacitinib was dissolved in dimethyl sulfoxide to 5 mg/mL, and 50 μL was added to IMQ cream for daily treatment.
Mice in Groups 2 to 7 received daily topical doses of 62.5 mg of IMQ cream on their shaved back from Day 0 to Day 7.
Dosing of the test compounds and reference substance was carried out according to Table 29 for 7 consecutive days.
To assess the severity of inflammation of skin on the back, the skin on the back was scored according to Table 30. Erythema, scales and thickening were scored independently on a scale of 0 to 3, 0, none; 1. mild; 2. moderate; 3. obvious/severe.
The inhibition rate was calculated according to the following formula: Inhibition rate=[AUC (solvent)−AUC (treatment)]/AUC (solvent)×100%. Wherein, solvent referred to the solvent group corresponding to the route of administration.

cocaine dependence = details: used in combination with cocaine; cited from earlier work
[3] = Day 0, 50 mg/kg oral QD (Nepicastat A)
[4] = Day 0, 100 mg/kg topical QD (Nepicastat B)
[5] = Day 0, group Nepicastat A (50 mpk oral)
[6] = Day 0, group Nepicastat B (100 mpk topical)
[7] = Day 1, 50 mg/kg oral QD (Nepicastat A)
[8] = Day 1, 100 mg/kg topical QD (Nepicastat B)
[9] = Day 1, group Nepicastat A (50 mpk oral)
[10] = Day 1, group Nepicastat B (100 mpk topical)
[11] = Day 2, 50 mg/kg oral QD (Nepicastat A)
[12] = Day 2, 100 mg/kg topical QD (Nepicastat B)
[13] = Day 2, group Nepicastat A (50 mpk oral)
[14] = Day 2, group Nepicastat B (100 mpk topical)
[15] = Day 3, 50 mg/kg oral QD (Nepicastat A)
[16] = Day 3, 100 mg/kg topical QD (Nepicastat B)
[17] = Day 3, group Nepicastat A (50 mpk oral)
[18] = Day 3, group Nepicastat B (100 mpk topical)
[19] = Day 4, 50 mg/kg oral QD (Nepicastat A)
[20] = Day 4, 100 mg/kg topical QD (Nepicastat B)
[21] = Day 4, group Nepicastat A (50 mpk oral)
[22] = Day 4, group Nepicastat B (100 mpk topical)
[23] = Day 5, 50 mg/kg oral QD (Nepicastat A)
[24] = Day 5, 100 mg/kg topical QD (Nepicastat B)
[25] = Day 5, group Nepicastat A (50 mpk oral)
[26] = Day 5, group Nepicastat B (100 mpk topical)
[27] = Day 6, 50 mg/kg oral QD (Nepicastat A)
[28] = Day 6, 100 mg/kg topical QD (Nepicastat B)
[29] = Day 6, group Nepicastat A (50 mpk oral)
[30] = Day 6, group Nepicastat B (100 mpk topical)
[31] = Day 7, 50 mg/kg oral QD (Nepicastat A)
[32] = Day 7, 100 mg/kg topical QD (Nepicastat B)
[33] = Day 7, group Nepicastat A (50 mpk oral)
[34] = Day 7, group Nepicastat B (100 mpk topical)
[35] = oral administration 50 mg/kg, Day 5 to Day 7

## NCc1c[nH]c(=S)n1[C@H]1CCc2c(F)cc(F)cc2C1 [Nepicastat]
[1]
  proportion of CD4+ T cell subpopulation: reduce the proportion
  proportion of CD25+FOXP3+ Treg cell subpopulation: increase the proportion
  secretion of IFN-γ by CD4+ T cell subpopulation: reduce the secretion
  secretion of IL-17A by CD4+ T cell subpopulation: reduce the secretion
  secretion of TNF-α by CD4+ T cell subpopulation: reduce the secretion
[2]; 50 mg/kg oral and 100 mg/kg topical QD × 7 days
  progression and incidence of the disease: did not affect the progression and incidence of the disease, but showed efficacy at the later stages of the disease course (Day 5 to Day 7)
[2]; 100 mpk topical QD × 7 days
  efficacy on the clinical score of the skin: no significant efficacy
[2]; [3]
  erythema score: 0
  scales score: 0
[2]; [4]
  erythema score: 0
  scales score: 0
[2]; [5]
  thickness score: 0
  total score of erythema + scales + thickness: 0
[2]; [6]
  thickness score: 0
  total score of erythema + scales + thickness: 0
[2]; [7]
  erythema score: 0
  scales score: 0
[2]; [8]
  erythema score: 0
  scales score: 0
[2]; [9]
  thickness score: 0.6
  total score of erythema + scales + thickness: 0.6
[2]; [10]
  thickness score: 0.9
  total score of erythema + scales + thickness: 0.9
[2]; [11]
  erythema score: 1.4
  scales score: 0
[2]; [12]
  erythema score: 1.5
  scales score: 0
[2]; [13]
  thickness score: 1.2
  total score of erythema + scales + thickness: 2.6
[2]; [14]
  thickness score: 1.3
  total score of erythema + scales + thickness: 2.8
[2]; [15]
  erythema score: 1.5
  scales score: 0
[2]; [16]
  erythema score: 1.8
  scales score: 0
[2]; [17]
  thickness score: 1.6
  total score of erythema + scales + thickness: 3.1
[2]; [18]
  thickness score: 1.5
  total score of erythema + scales + thickness: 3.3
[2]; [19]
  erythema score: 1.6
  scales score: 1.1
[2]; [20]
  erythema score: 1.8
  scales score: 1.2
[2]; [21]
  thickness score: 1.4
  total score of erythema + scales + thickness: 4.1
[2]; [22]
  thickness score: 1.5
  total score of erythema + scales + thickness: 4.5
[2]; [23]
  erythema score: 1.6
  scales score: 1.6
[2]; [24]
  erythema score: 1.7
  scales score: 2.5
[2]; [25]
  thickness score: 1.3
  total score of erythema + scales + thickness: 4.5
[2]; [26]
  thickness score: 1.3
  total score of erythema + scales + thickness: 5.5
[2]; [27]
  erythema score: 1.7
  scales score: 1.9
[2]; [28]
  erythema score: 1.5
  scales score: 2.4
[2]; [29]
  thickness score: 1.4
  total score of erythema + scales + thickness: 5
[2]; [30]
  thickness score: 1.3
  total score of erythema + scales + thickness: 5.2
[2]; [31]
  erythema score: 1.6
  scales score: 2.1
[2]; [32]
  erythema score: 1.2
  scales score: 2.1
[2]; [33]
  thickness score: 1.4
  total score of erythema + scales + thickness: 5.1
[2]; [34]
  thickness score: 1.4
  total score of erythema + scales + thickness: 4.7
[2]; Mus musculus, 168 h, 50 mpk oral QD × 7 days, vs corresponding solvent group, read-out: inhibition rate (AUC of total clinical score)
  inhibition at 50 mg/kg: 23.6%
[2]; PO 50 mg/kg QD × 7 days, vs solvent group and control group
  therapeutic effect on clinical symptoms: mild therapeutic effect on clinical symptoms
[2]; [35]
  erythema: inhibited
  thickness: inhibited
[2]; topical administration 100 mg/kg, Day 4 to Day 7
  erythema: inhibited
Cocaine dependence
  positive effects of cocaine: inhibit the positive effects of cocaine
